Laboratory results from patent US20120129833A1, “CYCLIC KETOENOLS FOR THERAPY” (BAYER PHARMA AKTIENGESELLSCHAFT, priority 2010, published 2012).

Columns and labels:
[1] = target: T1, ACC2 (acetyl-CoA carboxylase 2) (Homo sapiens, UniProt O00763); assay: Human ACC2 enzyme assay (HTRF ADP detection); type: biochemical; details: 20 μM acetyl-CoA, 15 min pre-incubation, 20 min at 22° C.; read-out: ACC 2 IC50
T1 construct: catalogue no; 50201, amino acids 39—end, expressed in baculovirus-transfected Sf9 insect cells; His (C); purchased BPS Bioscience (San Diego, Calif.) 50201; host or cells: baculovirus-transfected Sf9 insect cells
T1 sequence (O00763 39-2458 limits assumed): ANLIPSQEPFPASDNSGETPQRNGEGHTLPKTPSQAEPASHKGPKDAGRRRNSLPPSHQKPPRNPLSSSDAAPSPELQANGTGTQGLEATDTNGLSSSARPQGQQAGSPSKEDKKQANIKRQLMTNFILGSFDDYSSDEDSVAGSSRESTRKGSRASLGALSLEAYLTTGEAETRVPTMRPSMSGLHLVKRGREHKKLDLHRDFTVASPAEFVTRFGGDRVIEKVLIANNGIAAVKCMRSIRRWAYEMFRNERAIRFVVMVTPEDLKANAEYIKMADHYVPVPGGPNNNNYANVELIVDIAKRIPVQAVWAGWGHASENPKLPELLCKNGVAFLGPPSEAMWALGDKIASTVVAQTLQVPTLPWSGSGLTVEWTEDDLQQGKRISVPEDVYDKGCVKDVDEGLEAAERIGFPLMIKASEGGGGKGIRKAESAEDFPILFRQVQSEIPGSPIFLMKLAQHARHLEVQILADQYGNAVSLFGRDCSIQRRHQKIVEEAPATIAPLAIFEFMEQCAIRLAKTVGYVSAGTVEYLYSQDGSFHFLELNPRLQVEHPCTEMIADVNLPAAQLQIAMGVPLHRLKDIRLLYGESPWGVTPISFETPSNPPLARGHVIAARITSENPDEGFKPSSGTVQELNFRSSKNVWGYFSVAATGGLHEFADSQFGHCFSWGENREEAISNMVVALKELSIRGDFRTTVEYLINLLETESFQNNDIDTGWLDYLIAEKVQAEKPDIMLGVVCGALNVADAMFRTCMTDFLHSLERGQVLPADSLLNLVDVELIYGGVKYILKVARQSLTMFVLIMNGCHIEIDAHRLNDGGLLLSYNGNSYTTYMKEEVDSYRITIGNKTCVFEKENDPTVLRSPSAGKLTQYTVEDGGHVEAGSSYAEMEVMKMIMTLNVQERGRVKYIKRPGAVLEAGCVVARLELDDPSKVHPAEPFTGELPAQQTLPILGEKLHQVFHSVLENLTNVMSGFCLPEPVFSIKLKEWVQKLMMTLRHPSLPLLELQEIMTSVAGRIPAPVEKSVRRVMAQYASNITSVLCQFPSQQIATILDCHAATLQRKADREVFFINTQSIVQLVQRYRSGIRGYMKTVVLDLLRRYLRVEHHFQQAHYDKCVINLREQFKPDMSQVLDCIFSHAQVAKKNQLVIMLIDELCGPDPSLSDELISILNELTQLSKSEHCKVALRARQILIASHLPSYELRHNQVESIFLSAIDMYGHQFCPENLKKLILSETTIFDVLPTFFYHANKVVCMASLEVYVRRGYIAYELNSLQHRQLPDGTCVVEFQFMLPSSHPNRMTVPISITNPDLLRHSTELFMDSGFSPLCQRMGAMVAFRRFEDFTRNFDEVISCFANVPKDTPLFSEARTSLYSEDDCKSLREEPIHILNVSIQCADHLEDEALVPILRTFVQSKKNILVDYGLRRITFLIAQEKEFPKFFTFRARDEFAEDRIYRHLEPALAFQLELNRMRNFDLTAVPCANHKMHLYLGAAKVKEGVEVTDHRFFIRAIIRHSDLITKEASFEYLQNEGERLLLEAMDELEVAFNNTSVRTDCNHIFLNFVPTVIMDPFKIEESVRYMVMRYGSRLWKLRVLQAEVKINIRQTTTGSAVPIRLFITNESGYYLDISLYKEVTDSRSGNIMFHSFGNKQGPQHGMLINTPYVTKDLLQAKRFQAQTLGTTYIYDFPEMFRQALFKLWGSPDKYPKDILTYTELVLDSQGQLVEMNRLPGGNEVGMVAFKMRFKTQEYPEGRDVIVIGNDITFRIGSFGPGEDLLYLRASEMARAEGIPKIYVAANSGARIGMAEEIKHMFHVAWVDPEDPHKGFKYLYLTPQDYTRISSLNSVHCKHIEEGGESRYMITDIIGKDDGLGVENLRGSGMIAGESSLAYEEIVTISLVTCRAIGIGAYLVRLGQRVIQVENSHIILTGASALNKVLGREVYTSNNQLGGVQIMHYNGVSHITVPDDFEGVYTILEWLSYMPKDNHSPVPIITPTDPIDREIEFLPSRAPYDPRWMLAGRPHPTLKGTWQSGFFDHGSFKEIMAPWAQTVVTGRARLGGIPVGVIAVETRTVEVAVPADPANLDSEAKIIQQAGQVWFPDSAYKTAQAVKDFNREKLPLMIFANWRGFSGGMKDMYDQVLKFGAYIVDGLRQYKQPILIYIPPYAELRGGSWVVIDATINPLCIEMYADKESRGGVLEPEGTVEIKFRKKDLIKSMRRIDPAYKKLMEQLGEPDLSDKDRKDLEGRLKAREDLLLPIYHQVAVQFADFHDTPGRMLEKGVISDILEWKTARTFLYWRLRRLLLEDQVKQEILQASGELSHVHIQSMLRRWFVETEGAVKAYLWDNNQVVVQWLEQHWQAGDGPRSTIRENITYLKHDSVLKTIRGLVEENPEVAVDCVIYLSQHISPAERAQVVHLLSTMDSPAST

[2] = target: T2, recombinant human ACC1 (acetyl-CoA carboxylase 1) (Homo sapiens, UniProt Q13085); assay: Human ACC1 enzyme assay (HTRF ADP detection); type: biochemical; details: 50 μM ATP, 20 μM acetyl-CoA, 15 min pre-incubation, 20 min at 22° C.; read-out: ACC 1 IC50;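 note: ADP by-product quantified by competitive HTRF immunoassay with europium cryptate anti-ADP antibody and d2-labelled ADP, read after 1 h binding at 22 °C, enzyme near 2.5 ng/µl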
T2 construct: NM_198834, amino acids 39—end; FLAG (C); made in house; host or cells: baculovirus-transfected insect cells (Hi5)
Protocol: The basic principle of the assay is the measurement of adenosine diphosphate (ADP), which is formed as a by-product, by means of an HTRF®-based competitive immunoassay (HTRF=Homogeneous Time Resolved Fluorescence).
The amount of complex of d2-labelled ADP and europium cryptate-labelled anti-ADP antibody was then determined by measuring the resonance energy transfer of europium cryptate to d2.

Compound | IC50 [1] | IC50 [2]
O=C1C(c2cc(-c3ccc(F)cc3F)ccc2Cl)C(=O)N2CCOCCN12 [Example 8-11, 8-(4-chloro-2′,4′-difluorobiphenyl-3-yl)tetrahydro-7H-pyrazolo[1,2-d][1,4,5]oxadiazepine-7,9(8H)-dione] | > 20 µM | 0.713 µM
Cc1ccc(-c2ccc(Cl)cc2)cc1C1C(=O)N2CC(C)(F)CN2C1=O [Example 8-12, 2-(4′-chloro-4-methylbiphenyl-3-yl)-6-fluoro-6-methyldihydro-1H,5H-pyrazolo[1,2-a]pyrazole-1,3(2H)-dione] | > 20 µM | 0.587 µM
CC1(F)CN2C(=O)C(c3cc(-c4ccc(Cl)cc4)ccc3Cl)C(=O)N2C1 [Example 8-13, 2-(4,4′-dichlorobiphenyl-3-yl)-6-fluoro-6-methyldihydro-1H,5H-pyrazolo[1,2-a]pyrazole-1,3(2H)-dione] | > 20 µM | 0.64 µM
Cc1ccc(-c2ccc(Cl)cc2)cc1C1C(=O)N(C)N(C)C1=O [Example 8-14, 4-(4′-chloro-4-methylbiphenyl-3-yl)-1,2-dimethyl-1H-pyrazole-3,5(2H,4H)-dione] | > 20 µM | 2.4 µM
CN1C(=O)C(c2cc(-c3ccc(Cl)cc3)ccc2Cl)C(=O)N1C [Example 8-15, 4-(4,4′-dichlorobiphenyl-3-yl)-1,2-dimethyl-1H-pyrazole-3,5(2H,4H)-dione] | > 20 µM | 1.97 µM
Cc1ccc(-c2ccc(Cl)cc2)cc1C1C(=O)N2C3CCC(C3)N2C1=O (stereo not drawn) [Example 8-16, 2-(4′-chloro-4-methylbiphenyl-3-yl)tetrahydro-1H-5,8-methanopyrazolo[1,2-a]pyridazine-1,3(2H)-dione] | > 20 µM | 0.662 µM
O=C1C(c2cc(-c3ccc(Cl)cc3)ccc2Cl)C(=O)N2C3CCC(C3)N12 (stereo not drawn) [Example 8-17, 2-(4,4′-dichlorobiphenyl-3-yl)tetrahydro-1H-5,8-methanopyrazolo[1,2-a]pyridazine-1,3(2H)-dione] | > 20 µM | 0.913 µM
Cc1ccc(-c2ccc(Cl)cc2)cc1C1=C(O)CC(C)(C)NC1=O [Example 9-1, 3-(4′-chloro-4-methylbiphenyl-3-yl)-4-hydroxy-6,6-dimethyl-5,6-dihydropyridin-2(1H)-one] | > 20 µM | 0.319 µM
Cc1ccc(-c2ccc(Cl)cc2)cc1C1=C(O)C(C)(C)CNC1=O [Example 9-2, 3-(4′-chloro-4-methylbiphenyl-3-yl)-4-hydroxy-5,5-dimethyl-5,6-dihydropyridin-2(1H)-one] | 9.08 µM | 0.806 µM
Cc1ccc(-c2ccc(Cl)cc2)cc1C1=C(O)C2(CCCCC2)CNC1=O [Example 9-3, 4-(4′-chloro-4-methylbiphenyl-3-yl)-5-hydroxy-2-azaspiro[5.5]undec-4-en-3-one] | 4.28 µM | 1.06 µM
Cc1ccc(-c2ccc(Cl)cc2)cc1C1=C(O)CC(C)(C)N(C)C1=O [Example 9-4, 3-(4′-chloro-4-methylbiphenyl-3-yl)-4-hydroxy-1,6,6-trimethyl-5,6-dihydropyridin-2(1H)-one] | > 20 µM | 5.38 µM
Cc1ccc(-c2ccc(Cl)cc2)cc1-c1c(O)c2ccccc2[nH]c1=O [Example 9-5, 3-(4′-chloro-4-methylbiphenyl-3-yl)-4-hydroxyquinolin-2(1H)-one] | > 20 µM | 0.625 µM
Cc1ccc(-c2ccc(C(F)(F)F)cc2)cc1-c1c(O)c2ccc(Cl)cc2[nH]c1=O [Example 9-6, 7-chloro-4-hydroxy-3-[4-methyl-4′-(trifluoromethyl)biphenyl-3-yl]quinolin-2(1H)-one] | 18.9 µM | 1.09 µM
Cc1ccc(-c2ccc(Cl)cc2)cc1-c1c(O)c2ccc(F)cc2[nH]c1=O [Example 9-8, 3-(4′-chloro-4-methylbiphenyl-3-yl)-7-fluoro-4-hydroxyquinolin-2(1H)-one] | > 20 µM | 0.418 µM
Cc1ccc(-c2ccc(F)cc2)cc1-c1c(O)c2ccc(F)cc2[nH]c1=O [Example 9-9, 7-fluoro-3-(4′-fluoro-4-methylbiphenyl-3-yl)-4-hydroxyquinolin-2(1H)-one] | > 20 µM | 0.863 µM
Cc1ccc(-c2ccc(C(F)(F)F)cc2)cc1-c1c(O)c2ccc(F)cc2[nH]c1=O [Example 9-10, 7-fluoro-4-hydroxy-3-[4-methyl-4′-(trifluoromethyl)biphenyl-3-yl]quinolin-2(1H)-one] | > 20 µM | 1.69 µM
Cc1ccc(-c2ccc(Cl)cc2)cc1-c1c(O)c2ccc(Cl)cc2[nH]c1=O [Example 9-11, 7-chloro-3-(4′-chloro-4-methylbiphenyl-3-yl)-4-hydroxyquinolin-2(1H)-one] | 4.12 µM | 0.42 µM
O=c1[nH]c2cc(Cl)ccc2c(O)c1-c1cc(-c2ccc(Cl)cc2)ccc1Cl [Example 9-13, 7-chloro-3-(4,4′-dichlorobiphenyl-3-yl)-4-hydroxyquinolin-2(1H)-one] | 5.56 µM | 0.329 µM
Cc1ccc(-c2ccc(Cl)cc2)cc1C1=C(O)C(C)(C)C(C)(C)NC1=O [Example 9-14, 3-(4′-chloro-4-methylbiphenyl-3-yl)-4-hydroxy-5,5,6,6-tetramethyl-5,6-dihydropyridin-2(1H)-one] | 5.62 µM | 1.64 µM
CC1(C)OC(=O)C(c2cc(-c3ccc(Cl)cc3)ccc2Cl)=C(O)C1(C)C [Example 10-1, 3-(4,4′-dichlorobiphenyl-3-yl)-4-hydroxy-5,5,6,6-tetramethyl-5,6-dihydro-2H-pyran-2-one] | > 20 µM | 1.37 µM
Cc1ccc(-c2ccc(Cl)cc2)cc1C1=C(O)C(C)(C)C(C)(C)OC1=O [Example 10-2, 3-(4′-chloro-4-methylbiphenyl-3-yl)-4-hydroxy-5,5,6,6-tetramethyl-5,6-dihydro-2H-pyran-2-one] | > 20 µM | 0.586 µM
Cc1ccc(-c2ccc(Cl)cc2)cc1C1C(=O)N(C)OC(C)(C)C1=O (stereo not drawn) [Example 11-1, 4-(4′-chloro-4-methylbiphenyl-3-yl)-2,6,6-trimethyl-1,2-oxazinane-3,5-dione] | > 20 µM | 4 µM
CCc1cc(-c2ccccc2)cc(Cl)c1C1C(=O)N2CCOCCN2C1=O [Example C-1, reference compound] | > 20 µM | > 20 µM
COC1CCC2(CC1)NC(=O)C(c1c(C)cc(-c3ccc(Cl)cc3)cc1C)=C2O (stereo not drawn) [Example C-2, reference compound] | > 20 µM | > 20 µM
COC1CCC2(CC1)NC(=O)C(c1c(C)cc(OC(F)(F)F)cc1Cl)=C2O (stereo not drawn) [Example C-3, reference compound] | > 20 µM | > 20 µM
CCc1cc(C)cc(Br)c1C1=C(O)C2(CCCCC2)OC1=O [Example C-4, reference compound] | > 20 µM | 5.4 µM
(5r,8r)-3-(4′-chloro-2,4-dimethylbiphenyl-3-yl)-4-hydroxy-8-methoxy-8-methyl-1-azaspiro[4.5]dec-3-en-2-one [Example 1-87] | 7.3 µM | 0.54 µM
